Results as given in patent publication US20240083885A1, “COMPOSITIONS AND METHODS FOR INHIBITING M PRO PROTEASE ACTIVITY AND FOR PREVENTING AND TREATING SARS-COV-2 INFECTION” (priority 2020, published 2024).
Read-outs that look alike come from different tables or passages of the source.

How the values were obtained:
SARS-CoV-2 M^pro = SARS-CoV-2 M^pro (Severe acute respiratory syndrome coronavirus 2 (2019-nCoV) (SARS-CoV-2), UniProt P0DTD1); assay: biochemical
Vero E6 cells = assay: Cytotoxicity in Vero E6 cells (neutral red uptake); settings: read-out: CC50 in Vero E6 cells
SARS-CoV-2 = assay: microbe, parasite or virus in culture; format: cell-based; settings: for EC50: Severe acute respiratory syndrome coronavirus 2, Vero C1008
in vitro [1] = settings: African green monkey
in vitro [2] = settings: human, CC50 in Calu-3 cells
[3] = read-out: SARS-COV-2 main protease enzymatic inhibition IC50
[4] = Vero E6 cells, immunofluorescence assay, read-out: SARS-CoV-2 antiviral assay EC50
[5] = read-out: SARS-COV-2 antiviral activity using immunofluorescence assay EC50
[6] = read-out: antiviral EC50 against SARS-CoV-2 in Vero E6 cells
[7] = read-out: IC50 against SARS-CoV-2 M^pro

Molecule `C[C@H](NC(=O)C(c1cccnc1)N(C(=O)c1ccco1)c1ccc(N2CCCCC2)cc1)c1ccccc1` (some centres unmarked) [Jun8-97-1] has an IC50 (SARS-CoV-2 M^pro; [3]) of 5.46 µM.

With `O=C(NC1CCCCC1)C(c1cccnc1)N(C(=O)c1ccco1)c1ccc(-c2ccccc2)cc1` (centres unmarked) [Jun9-3-3] the IC50 (SARS-CoV-2 M^pro; [3]) was 2.68 µM.

Molecule `O=C(NC1CCCC1)C(c1cccnc1)N(C(=O)c1c[nH]cn1)c1ccc(-c2ccccc2)cc1` (centres unmarked) [Jun9-3-5] has an IC50 (SARS-CoV-2 M^pro; [3]) of 7.27 µM.

Work on `O=C(NC1CCCCC1)C(c1cccnc1)N(C(=O)c1c[nH]cn1)c1ccc(-c2ccccc2)cc1` (centres unmarked) [Jun9-4-2] yielded an IC50 (SARS-CoV-2 M^pro; [3]) of 5.82 µM.

In the case of `C[C@H](NC(=O)C(c1cnccn1)N(C(=O)c1ccco1)c1ccc(-c2ccccc2)cc1)c1ccccc1` (some centres unmarked) [Jun9-4-4], the CC50 (Vero E6 cells) is reported as over 100 µM, the “Selectivity index SI CC50/EC50” value (SARS-CoV-2) is reported as over 243.9 and the EC50 (SARS-CoV-2; [4]) is reported as 0.82 ± 0.56 µM. For the same molecule, the EC50 (SARS-CoV-2; [5]) was 1.43 µM, the EC50 (SARS-CoV-2; [6]) was 0.82 to 4.54 µM and the CC50 at 5 days (in vitro [1]; Vero E6 Cytotoxicity CC50 (μM)) was over 200 µM. It also gave an IC50 (SARS-CoV-2 M^pro; [7]) of 0.28 ± 0.07 µM.

In the case of `C[C@H](NC(=O)C(c1cnccn1)N(C(=O)c1c[nH]cn1)c1ccc(-c2ccccc2)cc1)c1ccccc1` (some centres unmarked) [Jun9-5-2], the CC50 (Vero E6 cells) is reported as over 100 µM, the “Selectivity index SI CC50/EC50” value (SARS-CoV-2) is reported as 32.6 and the EC50 (SARS-CoV-2; [4]) is reported as 4.54 ± 0.69 µM. It also gave an EC50 (SARS-CoV-2; [5]) of 9.89 µM, an EC50 (SARS-CoV-2; [6]) of 0.82 to 4.54 µM and a CC50 at 5 days (in vitro [1]; Vero E6 Cytotoxicity CC50 (μM)) of 148 ± 13.9 µM. The IC50 (SARS-CoV-2 M^pro; [7]) was 0.67 ± 0.15 µM.

In the case of `O=C(NCC(c1ccccc1)c1ccccc1)C(c1cccnc1)N(C(=O)c1ccco1)c1ccc(-c2ccccc2)cc1` (centres unmarked) [Jun9-5-3], the IC50 (SARS-CoV-2 M^pro; [3]) is reported as 1.48 µM.

`C[C@H](NC(=O)C(c1cccnc1)N(C(=O)c1ccco1)c1ccc(OC(C)(C)C)cc1)c1ccccc1` (some centres unmarked) [Jun9-5-4] gave an IC50 (SARS-CoV-2 M^pro; [3]) of 21.9 µM.

`C[C@H](NC(=O)C(c1cccnc1)N(C(=O)c1ccco1)c1ccc(-c2ccccn2)cc1)c1ccccc1` (some centres unmarked) [Jun9-6-4] showed an IC50 (SARS-CoV-2 M^pro; [3]) of 1.81 µM.

With `O=C(NCCCc1ccccc1)C(c1cccnc1)N(C(=O)c1ccco1)c1ccc(-c2ccccc2)cc1` (centres unmarked) [Jun9-12-2] the CC50 (Vero E6 cells) was over 100 µM, the “Selectivity index SI CC50/EC50” value (SARS-CoV-2) was over 98.0 and the EC50 (SARS-CoV-2; [4]) was 2.04 ± 1.08 µM. For the same molecule, the EC50 (SARS-CoV-2; [5]) was 2.13 µM, the EC50 (SARS-CoV-2; [6]) was 0.82 to 4.54 µM and the CC50 at 5 days (in vitro [1]; Vero E6 Cytotoxicity CC50 (μM)) was over 200 µM. For the same molecule, the IC50 (SARS-CoV-2 M^pro; [3]) was 1.06 µM.

With `CC(C)(C)NC(=O)C(c1cnccn1)N(C(=O)c1ccco1)c1ccc(C(C)(C)C)cc1` (centres unmarked) [Jun9-17-2] the IC50 (SARS-CoV-2 M^pro; [3]) was 4.93 µM.

`O=C(NC1CCCC1)C(c1cccnc1)N(C(=O)CCl)c1ccc(-c2ccccc2)cc1` (centres unmarked) [Jun9-55-1, 2-(N-{[1,1′-biphenyl]-4-yl}-2-chloroacetamido)-N-cyclopentyl-2-(pyridin-3-yl)acetamide] showed a CC50 at 5 days (in vitro [2]) of under 2 µM and a CC50 at 5 days (in vitro [1]; CC50 in Vero E6 cells) of under 11 µM.

For `C[C@H](NC(=O)[C@H](c1cccnc1)N(C(=O)C(Cl)Cl)c1ccc(-c2ccccc2)cc1)c1ccccc1` [Jun9-62-2S, N-([1,1′-biphenyl]-4-yl)-2,2-dichloro-N-((S)-2-oxo-2-(((S)-1-phenylethyl)amino)-1-(pyridin-3-yl)ethyl)acetamide], the IC50 (SARS-CoV-2 M^pro; IC50 against SARS-CoV-2 M^pro) was over 20 µM.

`CC(C)(C)c1ccc(N(C(=O)c2ccco2)C(C(=O)Nc2ccc(F)cc2)c2cccnc2)cc1` (centres unmarked) [Jun9-88-3] showed an IC50 (SARS-CoV-2 M^pro; [3]) of 7.81 µM.

With `COc1ccc(NC(=O)C(c2cccnc2)N(C(=O)c2ccco2)c2ccc(C(C)(C)C)cc2)cc1` (centres unmarked) [Jun9-88-4] the IC50 (SARS-CoV-2 M^pro; [3]) was 7.49 µM.

`C[C@H](NC(=O)[C@H](c1cccnc1)N(C(=O)C(Br)(Br)Br)c1ccc(-c2ccccc2)cc1)c1ccccc1` [Jun9-88-6S, N-([1,1′-biphenyl]-4-yl)-2,2,2-tribromo-N-((S)-2-oxo-2-(((S)-1-phenylethyl)amino)-1-(pyridin-3-yl)ethyl)acetamide] showed a CC50 at 5 days (in vitro [1]; CC50 in Vero E6 cells) of 5.99 µM and an IC50 (SARS-CoV-2 M^pro; [7]) of 7.16 µM.

For `C[C@H](NC(=O)[C@H](c1cccnc1)N(C(=O)C(Br)Br)c1ccc(-c2ccccc2)cc1)c1ccccc1` [Jun9-89-2S, N-([1,1′-biphenyl]-4-yl)-2,2-dibromo-N-((S)-2-oxo-2-(((S)-1-phenylethyl)amino)-1-(pyridin-3-yl)ethyl)acetamide], the CC50 at 5 days (in vitro [1]; CC50 in Vero E6 cells) was 4.57 µM and the IC50 (SARS-CoV-2 M^pro; IC50 against SARS-CoV-2 M^pro) was 2.44 µM.

`C[C@H](NC(=O)C(c1cccnc1)N(C(=O)C(Cl)(Cl)Br)c1ccc(-c2ccccc2)cc1)c1ccccc1` (stereo partly drawn) [Jun9-89-3, N-([1,1′-biphenyl]-4-yl)-2-bromo-2,2-dichloro-N-(2-oxo-2-(((S)-1-phenylethyl)amino)-1-(pyridin-3-yl)ethyl)acetamide] showed a CC50 at 5 days (in vitro [1]; CC50 in Vero E6 cells) of 32.4 µM and an IC50 (SARS-CoV-2 M^pro; [7]) of 1.2 µM.

Work on `C[C@H](NC(=O)[C@H](c1cccnc1)N(C(=O)C(Cl)(Br)Br)c1ccc(-c2ccccc2)cc1)c1ccccc1` [Jun9-89-4S, N-([1,1′-biphenyl]-4-yl)-2,2-dibromo-2-chloro-N-((S)-2-oxo-2-(((S)-1-phenylethyl)amino)-1-(pyridin-3-yl)ethyl)acetamide] yielded an IC50 (SARS-CoV-2 M^pro; [7]) of 9.04 µM.

`C[C@H](NC(=O)[C@H](c1cccnc1)N(C(=O)C(Cl)Cl)c1ccc(-c2ccccc2)cc1)c1ccc(Br)cc1` [Jun9-90-3S, N-([1,1′-biphenyl]-4-yl)-N-((S)-2-(((S)-1-(4-bromophenyl)ethyl)amino)-2-oxo-1-(pyridin-3-yl)ethyl)-2,2-dichloroacetamide] showed an IC50 (SARS-CoV-2 M^pro; IC50 against SARS-CoV-2 M^pro) of over 20 µM.

Work on `C[C@@H](CCc1ccccc1)NC(=O)[C@H](c1cccnc1)N(C(=O)C(Cl)Cl)c1ccc(-c2ccccc2)cc1` [Jun9-90-4S, N-([1,1′-biphenyl]-4-yl)-2,2-dichloro-N-((S)-2-oxo-2-(((S)-4-phenylbutan-2-yl)amino)-1-(pyridin-3-yl)ethyl)acetamide] yielded an IC50 (SARS-CoV-2 M^pro; IC50 against SARS-CoV-2 M^pro) of over 20 µM.

`C=C(Cl)C(=O)N(c1ccc(-c2ccccc2)cc1)C(C(=O)N[C@@H](C)c1ccccc1)c1cccnc1` (stereo partly drawn) [Jun10-38-2, N-{[1,1′-biphenyl]-4-yl}-2-chloro-N-({[(1S)-1-phenylethyl]carbamoyl}(pyridin-3-yl)methyl)prop-2-enamide] showed an IC50 (SARS-CoV-2 M^pro; [7]) of 4.22 µM.
